Measured values as given in ChEMBL document CHEMBL1155797, “Cinnamoyl- and hydroxycinnamoyl amides of glaucine and their antioxidative and antiviral activities” (Bioorg Med Chem, 2008).

Assays:
[1] = tested on: Poliovirus 1; test: Antiviral activity against Poliovirus type 1 Lsc-2ab in human FL cells assessed as inhibition of cytopathic effect relative to control; type: functional
[2] = Selectivity index, CC50 for human FL cells to IC50 for Echovirus 13; type: functional
[3] = tested on: Coxsackievirus B1; test: Antiviral activity against Coxsackievirus B1 in human FL cells assessed as inhibition of cytopathic effect relative to control; type: functional
[4] = tested on: Radical scavenging activity; test: Antioxidant activity assessed as DPPH free radical scavenging activity at 3.6 mM after 20 mins; type: functional
[5] = tested on: Radical scavenging activity; test: Antioxidant activity assessed as DPPH free radical scavenging activity at 3.6 mM after 10 mins; type: functional
[6] = Cytotoxicity against human FL cells after 24 hrs; type: cell-based
[7] = tested on: Radical scavenging activity; test: Antioxidant activity assessed as DPPH free radical scavenging activity at 0.9 mM after 20 mins; type: functional
[8] = tested on: Radical scavenging activity; test: Antioxidant activity assessed as DPPH free radical scavenging activity at 0.9 mM after 10 mins; type: functional
[9] = tested on: Echovirus E13; test: Antiviral activity against Echovirus 13 in human FL cells; type: functional, organism-based; details: Enterovirus B
[10] = Selectivity index, CC50 for human HeLa Ohio-1 cells to IC50 for Human rhinovirus type 14; type: functional
[11] = tested on: HeLa; test: Cytotoxicity against human HeLa Ohio-1 cells
[12] = tested on: Radical scavenging activity; test: Antioxidant activity assessed as DPPH free radical scavenging activity at 1.8 mM after 20 mins; type: functional
[13] = Cytotoxicity against human HeLa Ohio-1 cells; type: cell-based
[14] = tested on: Radical scavenging activity; test: Antioxidant activity assessed as DPPH free radical scavenging activity at 1.8 mM after 10 mins; type: functional
[15] = tested on: Poliovirus 1; test: Antiviral activity against Poliovirus type 1 Lsc-2ab in human FL cells; type: functional, organism-based; details: Enterovirus C
[16] = tested on: Coxsackievirus B1; test: Antiviral activity against Coxsackievirus B1 in human FL cells; type: functional, organism-based; details: Enterovirus B
[17] = Selectivity index, CC50 for human FL cells to IC50 for Coxsackievirus B1; type: functional
[18] = Selectivity index, CC50 for human FL cells to IC50 for Poliovirus type 1 Lsc-2ab; type: functional
[19] = tested on: Echovirus E13; test: Antiviral activity against Echovirus 13 in human FL cells assessed as inhibition of cytopathic effect relative to control; type: functional

Structure (SMILES) | inhibition (INH) [1] | Ratio CC50/IC50 [2] | inhibition (INH) [3] | Activity [4] | Activity [5] | CC50 at 24 h [6] | Activity [7] | Activity [8] | IC50 [9] | Ratio CC50/IC50 [10] | CC50 [11] | Activity [12] | IC50 [13] | Activity [14] | IC50 [15] | IC50 [16] | Ratio CC50/IC50 [17] | Ratio CC50/IC50 [18] | inhibition (INH) [19]
COc1cc2c(cc1OC)-c1c(OC)c(OC)c(CNC(=O)/C=C/c3ccc(O)cc3)c3c1C(C2)N(C)CC3 (centres undefined) | <50% | 5 | 0% | 4.8% | 3.2% | 160 µM | 1.8% | 1.8% | 32 µM | 11 | 143 µM | 2.5% | 13 µM | 2% |  |  |  |  | 
Cc1cc(CCCCCCCOc2ccc(C3=NCCO3)cc2)on1 [DISOXARIL] |  | 19.2 |  |  |  | 25 µM |  |  | 1.3 µM | 14 | 21 µM |  | 1.5 µM |  | 2 µM | 2 µM | 12.5 | 12.5 | 
COc1cc2c(cc1OC)-c1c(OC)c(OC)c(CNC(=O)/C=C/c3ccccc3O)c3c1C(C2)N(C)CC3 (centres undefined) | <=25% |  | 0% | 4.2% | 3.3% | 152 µM | 0.8% | 1.1% |  | 10.3 | 155 µM | 3.6% | 15 µM | 2.3% |  |  |  |  | 0%
O=C(O)/C=C/c1ccc(O)cc1 |  |  |  | 6.1% | 4.5% |  | 2.9% | 2.1% |  |  |  | 4.7% |  | 3.7% |  |  |  |  | 
O=C(O)/C=C/c1ccccc1O |  |  |  | 3.6% | 3.3% |  | 2.4% | 2.1% |  |  |  | 2.7% |  | 2.2% |  |  |  |  | 
COc1cc2c(cc1OC)-c1c(OC)c(OC)c(CNC(=O)/C=C/c3cc(OC)c(O)c(OC)c3)c3c1C(C2)N(C)CC3 (centres undefined) | 0% |  | 0% | 31.6% | 26.3% | 112 µM | 10.5% | 8% |  | 4.5 | 125 µM | 18% | 28 µM | 14.4% |  |  |  |  | 0%
COc1cc(/C=C/C(=O)O)cc(OC)c1O |  |  |  | 69.6% | 69% |  | 17.2% | 16.1% |  |  |  | 31.9% |  | 26.5% |  |  |  |  | 
COc1cc(/C=C/C(=O)NCc2c3c4c(c(OC)c2OC)-c2cc(OC)c(OC)cc2CC4N(C)CC3)ccc1O (centres undefined) | 0% |  | 0% | 36.1% | 31.2% | 105 µM | 10.1% | 8.3% |  | 9.4 | 113 µM | 19.4% | 12 µM | 16.6% |  |  |  |  | <=25%
COc1cc2c(cc1OC)-c1c(OC)c(OC)c(CN)c3c1C(C2)N(C)CC3 (centres undefined) |  |  |  | 3.8% | 2.9% |  | 2.5% | 1.6% |  |  |  | 3% |  | 2.2% |  |  |  |  | 
COc1cc2c(cc1OC)-c1c(OC)c(OC)cc3c1[C@H](C2)N(C)CC3 [GLAUCINE] |  | 1.9 |  | 1.6% | 1.4% | 115 µM | 1.2% | 0.8% | 60 µM | 8.3 | 182 µM | 1.3% | 22 µM | 1.1% | 60 µM | 21 µM | 5.5 | 1.9 | 
COc1cc(/C=C/C(=O)O)ccc1O |  |  |  | 44.3% | 36.7% |  | 13.8% | 12% |  |  |  | 25.1% |  | 21% |  |  |  |  | 
COc1cc2c(cc1OC)-c1c(OC)c(OC)cc3ccnc(c13)C2=O [OXOGLAUCINE] |  | 104 |  |  |  | 52 µM |  |  | 0.5 µM | 170 | 51 µM |  | 0.3 µM |  | 1.2 µM | 2.5 µM | 20.8 | 43.3 | 
